Results from patent US20250170090A1, “METHOD FOR PREVENTING OR TREATING DISEASE OR DISORDER ASSOCIATED WITH ANTINEOPLASTIC AGENT” (ONQUALITY PHARMACEUTICALS CHINA LTD., priority 2022, published 2025).

Tests used:
[1] = test system: human immortalized keratinocytes (HaCaT); experiment: CCK-8 cell viability: alleviation of proliferative toxicity of anti-tumor agents on HaCaT (Table 8-1); format: cell-based; conditions: NO-NSAID 100 μM, percentage increase in viable cells vs anti-tumor agent alone
Experimental: (§1) Experiments were conducted using various epithelial cells: Examples 47-51 used human immortalized keratinocytes (HaCaT) with corresponding results in Table 8-1; Examples 52-56 used human oral keratinocytes (HOK) with results in Table 8-2; Examples 57-61 used gastric epithelial cells (GES-1) with results in Table 8-3; Examples 62-66 used human intestinal epithelial cells (FHs 74 Int) with results in Table 8-4.
(§2) The cultured cells were digested the suspended, counted, and seed into a 96-well plate with 5,000-10,000 cells per well. The wells are divided into the following groups: blank control group, anti-tumor agent group, anti-tumor agent+NO-NSAID group, anti-tumor agent solvent group, NO-NSAID solvent control group. Wherein each well of each group contained a basic medium, and the final liquid volume contained in each well was about 100 μL. The grouping situation was as follows: • 1) Blank control group: no solution was added except normally replacing the medium; • 2) Anti-tumor agent group: added the anti-tumor agent solution (the final concentration was shown in Table 8-1 to Table 8-4, the solvent of the anti-tumor agent solution was DMSO); • 3) Anti-tumor agent+NO-NSAID group: added the anti-tumor agent solution and the NO-NSAID solution (the final concentrations of anti-tumor agent and NO-NSAID were shown in Table 8-1 to Table 8-4, and according to the solubility of NO-NSAID, the solvent of NO-NSAID solution was selected as ethanol or sterile water, and minor volume differences in each group were adjusted by added the corresponding solvent); • 4) Anti-tumor agent solvent group: an equal volume of DMSO as contained in the corresponding anti-tumor agent solution in Group 2) was added; • 5) NO-NSAID control group: the same volume and type of solvent (for example, ethanol or sterile water) corresponding to the NO-NSAID contained in group 3) was added.
(§3) The anti-tumor agent solvent group was not involved in data processing and was only used as a reference for evaluating experimental system error. The NO-NSAID solvent control group was used for data correction to eliminate the influence of the solvent on the results.
(§4) After culturing for 24-48 hours, the Cell Counting Kit-8 (CCK-8) detection kit (C0037, Shanghai Beyotime Biotechnology Co., Ltd., Beyotime Biotechnology) was used to determine the cell viability. This allows for the calculation of the proliferative toxicity of anti-tumor agent on cell and the mitigating effect of NO-NSAID on proliferative toxicity. The results were statistically analyzed and plotted using GraphPad Prism 6.0 software and t test.

[2] = test system: hand-foot syndrome caused by macromolecular anti-tumor agents; experiment: Prevention of hand-foot syndrome caused by macromolecular protein inhibitors in rats (Table 3); format: in vivo
[3] = test system: human intestinal epithelial cells (FHs 74 Int); experiment: CCK-8 cell viability: alleviation of proliferative toxicity of anti-tumor agents on FHs 74 Int (Table 8-4); format: cell-based; conditions: NO-NSAID 100 μM
Experimental: as §1, §2, §3, §4

[4] = test system: hand-foot syndrome caused by anti-tumor agents; experiment: Treatment of established hand-foot syndrome caused by anti-tumor agents in rats (Table 4); format: in vivo
Experimental: After the rats (about 200 g) were fed and adapted for one week, the rats were divided into groups of 10 rats for gavage administration experiment. The anti-tumor agent was dissolved in a mixed solution of Cremophor EL:ethanol=1:1, and diluted with PBS to the required concentration (diluted about 3 times with PBS solution) before gavage. […] Specific experimental procedures followed those outlined in the prevention experiment. […] Table 4 lists the animal experiments using various anti-tumor agents and NO-NSAID ointment, as well as the corresponding experimental results (where the value in the control rate column=the incidence rate of hand-foot syndrome in the blank group−the incidence rate of hand-foot syndrome in the treatment group).

COc1ccc2cc(C(C)C(=O)OCCCCO[N+](=O)[O-])ccc2c1 (centres unmarked) [Compound A5]
Response rate % (average) ([1]; Afatinib (10 μM)): 32%
Response rate % (average) ([1]; Cabozantinib (5 μM)): 44%
Response rate % (average) ([1]; Dabrafenib (10 μM)): 7%
Response rate % (average) ([1]; Everolimus (5 μM)): 9%
Response rate % (average) ([1]; Infigratinib (15 μM)): 12%
Response rate % (average) ([1]; Lapatinib (5 μM)): 41%
Response rate % (average) ([1]; Lenvatinib (10 μM)): 9%
Response rate % (average) ([1]; Olmutinib (10 μM)): 40%
Response rate % (average) ([1]; Regorafenib (5 μM)): 22%
Response rate % (average) ([1]; Selumetinib (5 μM)): 13%
Response rate % (average) ([1]; Sorafenib (5 μM)): 31%
Response rate % (average) ([1]; Sunitinib (5 μM)): 33%
Control rate ([2]; Bevacizumab, 5-FU combination, tail vein injection once a week, ointment 2.50% wt, Days 18): 50.00%
Control rate ([2]; Bevacizumab, 5-FU combination, tail vein injection once a week, ointment 5% wt, Days 18): 66.67%
Control rate ([2]; Ramucirumab combined with paclitaxel, intraperitoneal injection once a week, ointment 2.50% wt, Days 23): 33.33%
Control rate ([2]; Ramucirumab combined with paclitaxel, intraperitoneal injection once a week, ointment 5% wt, Days 23): 50.00%
Response rate % (average) ([3]; Afatinib (10 μM)): 34%
Response rate % (average) ([3]; Cabozantinib (5 μM)): 36%
Response rate % (average) ([3]; Dabrafenib (10 μM)): −3%
Response rate % (average) ([3]; Everolimus (5 μM)): 28%
Response rate % (average) ([3]; Infigratinib (15 μM)): 16%
Response rate % (average) ([3]; Lapatinib (5 μM)): 43%
Response rate % (average) ([3]; Lenvatinib (10 μM)): 32%
Response rate % (average) ([3]; Olmutinib (10 μM)): 31%
Response rate % (average) ([3]; Regorafenib (5 μM)): 17%
Response rate % (average) ([3]; Selumetinib (5 μM)): 23%
Response rate % (average) ([3]; Sorafenib (5 μM)): 24%
Response rate % (average) ([3]; Sunitinib (5 μM)): 38%
Response rate ([4]; Apatinib 105 mg/kg once every two days, ointment 2.50% wt, Days 6): 28.57%
Response rate ([4]; Cabozantinib 50 mg/kg once every two days, ointment 1% wt, Days 11): 33.33%
Response rate ([4]; Encorafenib 80 mg/kg once every two days, ointment 2.50% wt, Days 7): 40.00%
Response rate ([4]; Erdafitinib 45 mg/kg once every two days, ointment 2.50% wt, Days 13): 40.00%
Response rate ([4]; Fruquintinib 40 mg/kg once every two days, ointment 2.50% wt, Days 8): 28.57%
Response rate ([4]; Lenvatinib 65 mg/kg once a day, ointment 2.50% wt, Days 12): 42.86%
Response rate ([4]; Olmutinib 100 mg/kg once every two days, ointment 2.50% wt, Days 10): 50.00%
Response rate ([4]; Regorafenib 90 mg/kg once every two days, ointment 5% wt, Days 6): 57.14%
Response rate ([4]; Sorafenib 80 mg/kg once every two days, ointment 2.50% wt, Days 5): 50.00%
Response rate ([4]; Sunitinib 120 mg/kg once every two days, ointment 2.50% wt, Days 7): 33.33%
